Article PMC10235985 (Proceedings of the National Academy of Sciences of the …, 2023)

Key:
hNK1R-407 mice = assay: Capsaicin-evoked mechanical allodynia; type: in vivo, mouse; details: 5 µL intrathecal; for duration of inhibition of capsaicin-evoked mechanical allodynia: 100 nM; for effect of higher dose on magnitude or duration of antinociception: 300 nM
[1] = tested on: hNK1R-407, hNK1R-311, and wild-type mice; assay: SP-evoked mechanical allodynia; type: in vivo, mouse; details: AP 100 nM/5 µL coadministered with SP 1 µg/5 µL intrathecal; hNK1R-407, hNK1R-311, wild-type mice
[2] = tested on: spinal neurons in NK1R-407 mice; design: species or system mouse; details: spinal cord slices
[3] = pKa measurement by potentiometric titration; type: physicochemical; details: 67% methanol aqueous solution
[4] = logD experiments, distribution between octanol and aqueous buffer; type: physicochemical; details: octanol/phosphate buffer, pH 7
Nluc-NK1R (human NK1R) [5] = biological target: T1, Nluc-NK1R (human NK1R) (Homo sapiens, UniProt P25103); assay: biochemical; type: binding
NK1R [6] = biological target: T2, NK1R (Homo sapiens, UniProt P25103); assay: cell-based
NK1R [7] = biological target: T2, NK1R; assay: Nuclear ERK activity, Nuc-EKAR FRET biosensor, HEK293T cells with human NK1R; type: cell-based
NK1R [8] = biological target: T2, NK1R; assay: ebBRET of SP-evoked mGαsq recruitment to early endosomes; type: cell-based; details: antagonist 10 µM added after 5 min SP; one phase decay
human NK1R-NP = human NK1R-NP (Homo sapiens, UniProt P25103); assay: NanoBiT-BRET; type: cell-based; details: NT 30 min, n = 5
Nluc-NK1R (human NK1R) [9] = biological target: T1, Nluc-NK1R (human NK1R); assay: NanoBRET saturation binding of TAMRA-NT analogs, membranes from HEK293T cells; details: read-out: Kd for Nluc-NK1R; pH 7.4, saturation binding

T2 sequence (P25103 whole entry): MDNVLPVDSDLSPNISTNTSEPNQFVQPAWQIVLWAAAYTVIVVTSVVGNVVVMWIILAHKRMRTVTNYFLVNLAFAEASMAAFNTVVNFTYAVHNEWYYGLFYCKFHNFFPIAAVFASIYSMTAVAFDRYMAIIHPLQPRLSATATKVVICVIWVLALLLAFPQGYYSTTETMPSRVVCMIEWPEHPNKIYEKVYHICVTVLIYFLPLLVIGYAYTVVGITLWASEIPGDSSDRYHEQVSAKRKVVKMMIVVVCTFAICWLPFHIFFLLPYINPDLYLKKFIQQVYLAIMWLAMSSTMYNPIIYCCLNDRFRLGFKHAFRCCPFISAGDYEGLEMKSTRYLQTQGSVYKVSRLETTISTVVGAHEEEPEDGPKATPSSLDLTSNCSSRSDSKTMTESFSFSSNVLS
T1 sequence (P25103 whole entry): as above
Sequence of human NK1R-NP (P25103 whole entry): as above

With `C[C@@H](O[C@H]1OCCN(Cc2n[nH]c(=O)[nH]2)[C@H]1c1ccc(F)cc1)c1cc(C(F)(F)F)cc(C(F)(F)F)c1` [AP, aprepitant] the “duration of inhibition of capsaicin-evoked mechanical allodynia” value (hNK1R-407 mice) was 2 h, the “effect of higher dose on magnitude or duration of antinociception” value (hNK1R-407 mice) was “did not further increase the magnitude or duration of the antinociception” and the “effect on SP-evoked mechanical allodynia” value [1] was “abolished”. The “effect on SP-induced excitation of spinal neurons” value [2] was “prevented SP-induced excitation”.

Work on `Cc1ccccc1-c1cc(N2CCN(C)CC2)ncc1N(C)C(=O)C(C)(C)c1cc(C(F)(F)F)cc(C(F)(F)F)c1` [NT, netupitant] yielded a pKa [3] of 6.81, a logD [4] of 4.97 and a Ki (Nluc-NK1R (human NK1R) [5]; Binding affinity BRET (Nluc-NK1R) pKi at pH 6.0) of 0.851 nM. It also gave a Ki (Nluc-NK1R (human NK1R) [5]; Ki (pH 7.4), pH 7.4, tracer PS69) of 0.91 nM, an IC50 (NK1R [6]) of 178 nM and an IC50 (NK1R [7]) of 257 nM. For the same compound, the “Kinetics of inhibition Endosomal miniGαsq (ebBRET) k for 10 µM” value (NK1R [8]) was 0.14 ± 0.02 (9) min^−1, the IC50 (human NK1R-NP; pIC50, inhibition of mGαsq recruitment to NK1R-NP at the plasma membrane (CAAX), CAAX, plasma membrane) was 6.46 nM and the IC50 (human NK1R-NP; pIC50, inhibition of mGαsq recruitment to NK1R-NP in early endosomes (FYVE), FYVE, early endosomes) was 20 nM. The “duration of inhibition of capsaicin-evoked mechanical allodynia” value (hNK1R-407 mice) was 4 h and the “effect of higher dose on magnitude or duration of antinociception” value (hNK1R-407 mice) was “did not further increase the magnitude or duration of the antinociception”.

In the case of “PS68: fluorescent tetramethylrhodamine (TAMRA) derivative of NT, also referred to as TAMRA-NT”, the Kd (Nluc-NK1R (human NK1R) [9]) is reported as 1.9 ± 0.39 nM.

“PS69: fluorescent TAMRA derivative of NT used as tracer in competition binding” gave a Kd (Nluc-NK1R (human NK1R) [9]) of 0.81 ± 0.065 nM.
